Legend:
Type in all cases: functional
MDA-MB-231 = experiment: Growth inhibition of human MDA-MB-231 cells assessed as cell growth at 10 uM by sulforhodamine B assay; details: read-out: Activity
SN12C [1] = experiment: Growth inhibition of human SN12C cells assessed as growth inhibition at 10 uM by sulforhodamine B assay; details: read-out: GI
SNB-19 = experiment: Growth inhibition of human SNB19 cells assessed as growth inhibition at 10 uM by sulforhodamine B assay; details: read-out: GI
BT-549 = experiment: Growth inhibition of human BT549 cells assessed as cell growth at 10 uM by sulforhodamine B assay; details: read-out: Activity
HL-60(TB) = experiment: Growth inhibition of human HL-60(TB) cells assessed as growth inhibition at 10 uM by sulforhodamine B assay; details: read-out: GI
NCI-H226 = experiment: Growth inhibition of human NCI-H226 cells assessed as cell growth at 10 uM by sulforhodamine B assay; details: read-out: Activity
SF-268 = experiment: Growth inhibition of human SF268 cells assessed as growth inhibition at 10 uM by sulforhodamine B assay; details: read-out: GI
NCI-H322M = experiment: Growth inhibition of human NCI-H322M cells assessed as growth inhibition at 10 uM by sulforhodamine B assay; details: read-out: GI
KM12 = experiment: Growth inhibition of human KM12 cells assessed as growth inhibition at 10 uM by sulforhodamine B assay; details: read-out: GI
COLO 205 = experiment: Growth inhibition of human COLO205 cells assessed as growth inhibition at 10 uM by sulforhodamine B assay; details: read-out: GI
K562 [2] = experiment: Growth inhibition of human K562 cells assessed as cell growth at 10 uM by sulforhodamine B assay; details: read-out: Activity
NCI-H522 [3] = experiment: Growth inhibition of human NCI-H522 cells assessed as growth inhibition at 10 uM by sulforhodamine B assay; details: read-out: GI
K562 [4] = experiment: Growth inhibition of human K562 cells assessed as growth inhibition at 10 uM by sulforhodamine B assay; details: read-out: GI
SK-MEL-28 = experiment: Growth inhibition of human SK-MEL-28 cells assessed as cell growth at 10 uM by sulforhodamine B assay; details: read-out: Activity
SW-620 = experiment: Growth inhibition of human SW620 cells assessed as cell growth at 10 uM by sulforhodamine B assay; details: read-out: Activity
NCI-H522 [5] = experiment: Growth inhibition of human NCI-H522 cells assessed as cell growth at 10 uM by sulforhodamine B assay; details: read-out: Activity
A549 = experiment: Growth inhibition of human A549/ATCC cells assessed as cell growth at 10 uM by sulforhodamine B assay; details: read-out: Activity
SN12C [6] = experiment: Growth inhibition of human SN12C cells assessed as cell growth at 10 uM by sulforhodamine B assay; details: read-out: Activity
M14 = experiment: Growth inhibition of human M14 cells assessed as growth inhibition at 10 uM by sulforhodamine B assay; details: read-out: GI
RPMI-8226 = experiment: Growth inhibition of human RPMI8226 cells assessed as cell growth at 10 uM by sulforhodamine B assay; details: read-out: Activity
[7] = Growth inhibition of human EKVX cells assessed as growth inhibition at 10 uM by sulforhodamine B assay; details: read-out: GI
RXF 393 = experiment: Growth inhibition of human RXF393 cells assessed as cell growth at 10 uM by sulforhodamine B assay; details: read-out: Activity

Row | SMILES | growth at 10 µM (MDA-MB-231) | inhibition of growth at 10 µM (SN12C [1]) | inhibition of growth at 10 µM (SNB-19) | growth at 10 µM (BT-549) | inhibition of growth at 10 µM (HL-60(TB)) | growth at 10 µM (NCI-H226) | inhibition of growth at 10 µM (SF-268) | inhibition of growth at 10 µM (NCI-H322M) | inhibition of growth at 10 µM (KM12) | inhibition of growth at 10 µM (COLO 205) | growth at 10 µM (K562 [2]) | inhibition of growth at 10 µM (NCI-H522 [3]) | inhibition of growth at 10 µM (K562 [4]) | growth at 10 µM (SK-MEL-28) | growth at 10 µM (SW-620) | growth at 10 µM (NCI-H522 [5]) | growth at 10 µM (A549) | growth at 10 µM (SN12C [6]) | inhibition of growth at 10 µM (M14) | growth at 10 µM (RPMI-8226) | other results
1 | COc1cc(/C=C2\C[C@]3(C)[C@H]4CC=C5[C@@H]6CC(C)(C)C[C@@H](O)[C@]6(C(=O)O)CC[C@@]5(C)[C@]4(C)CC[C@H]3C(C)(C)C2=O)ccc1O | 97.9% | 12.5% | < 10% | 106% | 28.9% | 100% | < 10% | < 10% | 16% | < 10% | 71.2% | 19.2% | 28.8% | 90.6% | 108% | 80.8% | 71.8% | 87.5% | < 10% | 59.5% | inhibition of growth at 10 µM [7]: 11.5%; growth at 10 µM (RXF 393): 109%
2 | CC1(C)C[C@@H](O)[C@]2(C(=O)O)CC[C@]3(C)C(=CC[C@@H]4[C@@]5(C)CC[C@H](O)C(C)(C)[C@@H]5CC[C@]43C)[C@@H]2C1 | 98.6% | 16.6% | < 10% | 90.3% | 18% | 107% | < 10% | < 10% | < 10% | < 10% | 94% | < 10% | < 10% | 95.6% | 109% | 95.3% | 87.5% | 89.5% | < 10% | 89.3% | inhibition of growth at 10 µM [7]: < 10%; growth at 10 µM (RXF 393): 112%
3 | CC1(C)C[C@@H](O)[C@]2(C(=O)O)CC[C@]3(C)C(=CC[C@@H]4[C@@]5(C)CCC(=O)C(C)(C)[C@@H]5CC[C@]43C)[C@@H]2C1 | 91.3% | 16.6% | < 10% | 89.9% | 24.8% | 103% | < 10% | < 10% | 12.3% | < 10% | 76.8% | 19.1% | 23.2% | 98% | 104% | 80.9% | 79% | 83.3% | < 10% | 70.2% | inhibition of growth at 10 µM [7]: < 10%; growth at 10 µM (RXF 393): 112%

Reference: ChEMBL document CHEMBL2413072, “Synthesis and in vitro anticancer studies of novel C-2 arylidene congeners of lantadenes” (2013)
